Patent publication EP3290417A1, “2-CHLORO-N-[2-(1,3-THIAZOL-5-YL)ETHYL]-5-(5-FLUOROPYRIMIDIN-2-YL)-BENZAMIDES AND THEIR USE AS P2X7 RECEPTOR ANTAGONISTS” (AXXAM S.p.A., priority 2016, dated 2018)

Key:
human P2X7 channel = target: T1, human P2X7 channel (Homo sapiens, UniProt Q99572); assay: human P2X7 channel assay by automated patch-clamp (QPatch16X, whole-cell voltage clamp); assay type: cell-based; conditions: HEK-293 cells expressing the P2X7 channels; current evoked by 100 microM BzATP; held at -80 mV; room temperature; read-out: hP2X7 (IC50; nM)
T1 construct: expressed in transfected cells; host or cells: HEK-293
T1 sequence (Q99572 1-595): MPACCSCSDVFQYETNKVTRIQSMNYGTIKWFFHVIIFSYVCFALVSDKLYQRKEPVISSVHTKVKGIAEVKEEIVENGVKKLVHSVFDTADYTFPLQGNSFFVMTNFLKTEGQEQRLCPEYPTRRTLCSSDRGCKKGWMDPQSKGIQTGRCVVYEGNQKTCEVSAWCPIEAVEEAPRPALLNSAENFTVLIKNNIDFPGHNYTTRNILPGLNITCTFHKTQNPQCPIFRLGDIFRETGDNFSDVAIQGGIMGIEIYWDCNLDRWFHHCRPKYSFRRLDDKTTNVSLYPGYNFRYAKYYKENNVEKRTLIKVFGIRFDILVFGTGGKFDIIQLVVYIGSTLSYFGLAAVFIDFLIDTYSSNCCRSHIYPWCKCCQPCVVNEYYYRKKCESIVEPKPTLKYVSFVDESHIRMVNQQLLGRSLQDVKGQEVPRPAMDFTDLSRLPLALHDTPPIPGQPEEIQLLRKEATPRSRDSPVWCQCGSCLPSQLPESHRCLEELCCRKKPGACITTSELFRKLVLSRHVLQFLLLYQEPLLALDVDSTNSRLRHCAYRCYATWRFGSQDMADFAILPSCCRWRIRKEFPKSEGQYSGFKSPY
Method: In order to directly monitor the block of P2X7 channel, an electrophysiological assay was developed and implemented on the QPatch16X automated electrophysiology instrument.
HEK-293 cells expressing the P2X7 channels were cultured in modified EMEM.
72 hours before experiment, 5 million cells were seeded onto T225 flasks. Just before the experiment cells were washed twice, detached from the flask with trypsin-EDTA, re-suspended in the suspension solution and placed on the QPatch 16x.
The compounds (20 mM in a 100% DMSO) stored at -20°C were prepared the day of the experiment (a first dilution 1:20 in 100% DMSO to prepare a 1 mM stock solution, then a 1 microM solution in external solution + a serial dilution 1:10).
The standard whole-cell voltage clamp experiments were performed at room temperature. For these experiments the multihole technology was used and the data were sampled at 2 KHz.
The intracellular solution contained (mM) 135 CsF, 10 NaCl, 1 EGTA, 10 HEPES, (pH 7.2 with CsOH) whereas the extracellular contained (mM) 145 NaCl, 4 KCl, 0.5 MgCl2, 1 CaCl2, 10 HEPES, 10 Glc (pH 7.4 with NaOH).
After establishment of the seal and the passage in the whole cell configuration, the cells were held at -80 mV. The P2XR7 current was evoked by applying 100 microM of BzATP alone (4 times) and then in the presence increasing concentrations of the compound under investigation (1, 10, 100 and 1000 nM).
The pre-incubation periods 5 to 8 contain increasing concentrations of the compound of interest (1, 10, 100 and 1000 nM), as illustrated in Figure.
The maximal inward current evoked by BzATP in absence or presence of increasing concentrations of the compounds under investigation was measured and normalized. The potential modulatory effect was measured as % of control and as IC50 determined fitting the dose-response curves data with the following equation: Y = 100/(1+10^(∧)((LogIC50−X)*HillSlope)) [formula] where: • X: log of concentration • Y: normalized response, 100% down to 0%, decreasing as X increases. • LogIC50: same log units as X • HillSlope: slope factor or HS, unitless

rat P2X7R = target: T2, rat P2X7R (Rattus norvegicus, UniProt Q64663); assay: rat P2X7 Ca2+ influx assay, Screen Quest Fluo-8 No Wash Calcium Assay Kit (FLIPRTETRA); assay type: cell-based; conditions: HEK-293 cells stably transfected with rat P2X7R; BzATP at ~EC80; 5' incubation with compound; read-out: rP2X7 (IC50; nM)
T2 construct: expressed in transfected cells; host or cells: HEK-293 (stably transfected)
T2 sequence (Q64663 1-595): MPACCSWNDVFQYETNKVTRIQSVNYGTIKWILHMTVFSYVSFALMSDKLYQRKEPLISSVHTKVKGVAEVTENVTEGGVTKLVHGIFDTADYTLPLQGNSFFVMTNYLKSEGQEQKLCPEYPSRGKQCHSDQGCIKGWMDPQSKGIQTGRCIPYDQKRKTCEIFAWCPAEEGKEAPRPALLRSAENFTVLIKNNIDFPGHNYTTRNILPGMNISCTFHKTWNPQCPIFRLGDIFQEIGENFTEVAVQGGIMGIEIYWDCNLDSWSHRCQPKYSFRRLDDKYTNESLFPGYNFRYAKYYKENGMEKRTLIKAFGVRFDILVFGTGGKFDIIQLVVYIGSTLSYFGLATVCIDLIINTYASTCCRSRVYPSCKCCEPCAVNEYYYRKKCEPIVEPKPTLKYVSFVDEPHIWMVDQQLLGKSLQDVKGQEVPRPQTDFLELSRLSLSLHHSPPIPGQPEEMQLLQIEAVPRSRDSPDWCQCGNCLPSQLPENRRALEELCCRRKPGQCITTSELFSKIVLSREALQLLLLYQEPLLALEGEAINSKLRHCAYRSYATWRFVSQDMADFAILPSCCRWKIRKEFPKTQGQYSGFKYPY
Method: Ca^2+ influx was measured in HEK-293 cells stably transfected with the receptor using Screen Quest™ Fluo-8 No Wash Calcium Assay Kit (AAt Bioquest®). Briefly, once inside the cells, the lipophilic blocking groups of Fluo-8 are cleaved by non-specific cell esterases, resulting in a negatively-charged fluorescent-dye that stays inside cells. Its fluorescence increases upon binding to calcium. When HEK-293/P2X7 cells were stimulated with BzATP, Ca^2+ entered the cells and the fluorescence of Fluo-8 NW increaseed. The dye absorption spectrum was compatible with excitation at 488 nm by argon laser sources and its emission wavelength was in the range of 515-575 nm. […]
Compounds were tested at FLIPRTETRA according to the following method: • first injection at FLIPRTETRA of 10 µL of 3x test compound (in Tyrode's buffer 0.3 mM Ca^2+ / Mg^2+-free + DMSO 0.5% final concentration) • 5' incubation • second injection at FLIPRTETRA of 15 µL of 3x BzATP at ∼EC80 (in Tyrode's buffer 0.3 mM Ca^2+ / Mg^2+-free + BSA 0.0003% final concentration) • Fluorescence recording for 3' […]
The effect of the test compounds was measured as percent inhibition vs the reference antagonist and IC50 values were calculated accordingly.

[1] = metabolic stability in mouse liver microsomes; assay type: in vitro ADME; conditions: 1 µM test compound, 1 mg/mL protein, pH 7.4, 0-60 minutes
Method: In vitro evaluation of test compounds for metabolic stability using Rat or Mouse liver
Test System Rat or Mouse Liver Microsomes
• Test compound concentration: 1 µM • Time Points: 0, 5, 10, 30 and 60 minutes • Final Protein concentration: 1 mg/mL • Number of Replicates: Two • Potassium Phosphate Buffer pH 7.4 100 mM • End Point: % Remaining of Test compound, Half life, Clint • Bioanalysis by LC-MS/MS
10 mM stock solution of test compound were prepared in DMSO and dilute with water: acetonitrile (1:1) to a concentration of 1 mM. Working concentration of 100 µM were prepared by further dilution with water: acetonitrile (1: 1).
100 mL of Milli Q water will be added to K2HPO4 (1.398 g) and KH2PO4 (0.27 g) to get final pH 7.4.
Preincubation mixtures: 2.5 µL Test Cpd. + 75 µL Liver microsomes @ 3.33 mg/mL + 85 µL of 100 mM potassium phosphate buffer (Preincubate for 10 min @ 37°C)
60 min w/o cofactor: 32.5 µL of Preincubation mixture + 17.5 µL of 100 mM potassium phosphate buffer (Incubate for 60 min @ 37°C)
0 min sample: 16.25 µL of Preincubation mixture + 200 µL of acetonitrile containing internal standard + 8.75 µL of cofactor Incubation mixture 62 µL of cofactor (2.5 mM) + Remaining incubation mixture (Incubated for 60 min@ 37°C).
Sample preparation: 25 µL incubation mixture + 200 µL of acetonitrile containing internal standard + Vortex 5 min @ 1200 rpm + Centrifuge 10 min @ 4000 rpm. […]

Molecule | IC50 (human P2X7 channel) [nM] | IC50 (rat P2X7R) [nM] | Mouse Liver Microsomal Clearance (Cli; µL/min/mg) [1] [µL/min/mg]
O=C(NCC(c1cnc(C(F)F)s1)N1CCOCC1)c1cc(-c2ncc(F)cn2)ccc1Cl (racemic) [Compound 1, (±)-2-chloro-N-{2-[2-(difluoromethyl)-1,3-thiazol-5-yl]-2-(morpholin-4-yl)ethyl}-5-(5-fluoropyrimidin-2-yl)benzamide] | 47.1 | 66 | 
O=C(NCC(c1cnc(CF)s1)N1CCOCC1)c1cc(-c2ncc(F)cn2)ccc1Cl (centres unmarked) [Compound 7, 2-chloro-N-{2-[2-(fluoromethyl)-1,3-thiazol-5-yl]-2-(morpholin-4-yl)ethyl}-5-(5-fluoropyrimidin-2-yl)benzamide] | 38.3 |  | 
C#Cc1ncc(C(CNC(=O)c2cc(-c3ncc(F)cn3)ccc2Cl)N2CCC(F)(F)CC2)s1 (centres unmarked) [Compound 9, 2-chloro-N-[2-(4,4-difluoropiperidin-1-yl)-2-(2-ethynyl-1,3-thiazol-5-yl)ethyl]-5-(5-fluoropyrimidin-2-yl)benzamide] | 39.2 |  | 

Further molecules by falling IC50 (human P2X7 channel), results first:

IC50 (human P2X7 channel) [nM] | IC50 (rat P2X7R) [nM] | Mouse Liver Microsomal Clearance (Cli; µL/min/mg) [1] [µL/min/mg] | Molecule
103 |  |  | 2-chloro-N-{2-[4-(cyclopropyl)-1,3-thiazol-5-yl]-2-(4,4-difluoropiperidin-1-yl)ethyl}-5-(5-fluoropyrimidin-2-yl)benzamide [Compound 4]
64.6 |  |  | O=C(NCC(c1scnc1CO)N1CCC(F)(F)CC1)c1cc(-c2ncc(F)cn2)ccc1Cl (centres unmarked) [Compound 5, 2-chloro-N-{2-[4-(hydroxymethyl)-1,3-thiazol-5-yl]-2-(4,4-difluoropiperidin-1-yl)ethyl}-5-(5-fluoropyrimidin-2-yl)benzamide]
33.3 |  | 47.3 | O=C(NCC(c1scnc1CF)N1CCC(F)(F)CC1)c1cc(-c2ncc(F)cn2)ccc1Cl (centres unmarked) [Compound 6, 2-chloro-N-{2-[4-(fluoromethyl)-1,3-thiazol-5-yl]-2-(4,4-difluoropiperidin-1-yl)ethyl}-5-(5-fluoropyrimidin-2-yl)benzamide]
27 | 48 |  | O=C(NCC(c1cnc(C(F)F)s1)N1CCOCC1)c1cc(-c2ncc(F)cn2)ccc1Cl (single isomer, unassigned; (-)) [Compound 3, (-)-2-chloro-N-{2-[2-(difluoromethyl)-1,3-thiazol-5-yl]-2-(morpholin-4-yl)ethyl}-5-(5-fluoropyrimidin-2-yl)benzamide]
20.3 |  |  | O=C(NCC(c1cnc(CF)s1)N1CCC(F)(F)CC1)c1cc(-c2ncc(F)cn2)ccc1Cl (centres unmarked) [Compound 8, 2-chloro-N-{2-[2-(fluoromethyl)-1,3-thiazol-5-yl]-2-(4,4-difluoropiperidin-1-yl)ethyl}-5-(5-fluoropyrimidin-2-yl)benzamide]
